From patent US10105372B2, “Methods of treating obesity using antioxidant inflammation modulators” (REATA PHARMACEUTICALS, INC., priority 2010, dated 2018)
“Also recorded” adds a separate entry of the source.

Assay: 12-month toxicity study, body weight
Assay type: in vivo, cynomolgus monkeys
Conditions: for % gain / kg gained: pretest to Week 50
Procedure: All the animals were healthy and within normal weights for their age at the start of the study. The dose levels were 0, 30/5, 100/30, and 300 mg/kg/day and administered at a dose volume of 3 mL per dose. The control group received the vehicle in the same manner as the treated groups. Just prior to administration, the test article for each animal was added to the syringe containing the vehicle for each animal and vortexed until thoroughly mixed to achieved the desired concentrations of 30, 100, and 300 mg/mL through Day 42 (Week 6). During administration, the syringe containing the test article preparation for each animal was pushed through the gavage tube. The 1 mL vehicle rinse was then added to the dosing syringe and administered. After administration of both volumes, a 5 mL flush of the vehicle was used to rinse the gavage tube and ensure that the entire amount of the test article was administered to the animal. […] Therefore, dose levels were adjusted so that different blood exposures could be examined. During Week 7 dosing for all animals was stopped for four days (Days 43 to 46). The initial dose levels of 30 and 100 mg/kg/day were reduced to 5 and 30 mg/kg/day, respectively, and dosing was resumed on Day 47 through Day 353. Individual doses were based on the most recent body weights.

## COC(=O)[C@]12CCC(C)(C)C[C@H]1[C@H]1C(=O)C=C3[C@@]4(C)C=C(C#N)C(=O)C(C)(C)[C@@H]4CC[C@@]3(C)[C@]1(C)CC2 [bardoxolone methyl]
Females, 300 mg/kg/day
  Week 26 Weight: 2.552 kg
  Week 50 Weight: 2.68 kg
  % gain: 28.60%
  kg gained: 0.596 kg
Females, 30/5 mg/kg/day
  Week 26 Weight: 2.454 kg
  Week 50 Weight: 2.608 kg
  % gain: 26.05%
  kg gained: 0.539 kg
Females, 100/30 mg/kg/day
  Week 26 Weight: 2.293 kg
  Week 50 Weight: 2.68 kg
  % gain: 30.22%
  kg gained: 0.622 kg
Males, 300 mg/kg/day
  Week 26 Weight: 2.52 kg
  Week 50 Weight: 2.808 kg
  % gain: 31.15%
  kg gained: 0.667 kg
Males, 30/5 mg/kg/day
  Week 50 Weight: 2.975 kg
  % gain: 39.80%
  kg gained: 0.847 kg
Males, 30/5 mg/kg/day oral gavage
  Week 26 Weight: 2.567 kg
Males, 100/30 mg/kg/day
  Week 26 Weight: 2.464 kg
  Week 50 Weight: 2.725 kg
  % gain: 26.63%
  kg gained: 0.573 kg
Healthy monkeys with normal body weights, all treated groups, 26 and 50 weeks
  effect on body weight: gained significant amounts of weight; also recorded: did not induce weight loss
